Laboratory results taken from patent publication US12246026B2, “Ganaxolone for use in treatment of status epilepticus” (Marinus Pharmaceuticals, Inc., priority 2019, dated 2025).
Entries after “also recorded” stand apart in the source; their conditions may differ.

What was measured:
[1] = Phase 1 IV ganaxolone pharmacokinetics in healthy subjects; assay type: in vivo, human
Procedure: A Phase I clinical trial evaluating IV ganaxolone formulation was performed. The clinical trial was designed to investigate the safety, pharmacokinetics, and pharmacodynamics of an intravenous bolus of ganaxolone and continuous intravenous infusion of ganaxolone in 30 healthy subjects. Subjects were administered either an intravenous bolus of ganaxolone in an amount of 10-20 mg for a period of 2 minutes to 1 hour, or an intravenous bolus of ganaxolone in an amount of 6 mg for a period of 5 minutes with a continuous intravenous infusion in an amount of 20 mg/hr for a period of 4 hours.
There was little or no delay between the appearance of drug in plasma and a change in the BIS score.

[2] = Phase 2 open-label dose range study, safety
Excerpt: Secondary objectives included assessment of adverse events and evaluation of the pharmacokinetics of IV ganaxolone in patients with SE.

progesterone receptor = target: T1, progesterone receptor (Homo sapiens, UniProt P06401); assay: Progesterone receptor activation; conditions: directly or indirectly via metabolic conversion
T1 sequence (P06401 1-933): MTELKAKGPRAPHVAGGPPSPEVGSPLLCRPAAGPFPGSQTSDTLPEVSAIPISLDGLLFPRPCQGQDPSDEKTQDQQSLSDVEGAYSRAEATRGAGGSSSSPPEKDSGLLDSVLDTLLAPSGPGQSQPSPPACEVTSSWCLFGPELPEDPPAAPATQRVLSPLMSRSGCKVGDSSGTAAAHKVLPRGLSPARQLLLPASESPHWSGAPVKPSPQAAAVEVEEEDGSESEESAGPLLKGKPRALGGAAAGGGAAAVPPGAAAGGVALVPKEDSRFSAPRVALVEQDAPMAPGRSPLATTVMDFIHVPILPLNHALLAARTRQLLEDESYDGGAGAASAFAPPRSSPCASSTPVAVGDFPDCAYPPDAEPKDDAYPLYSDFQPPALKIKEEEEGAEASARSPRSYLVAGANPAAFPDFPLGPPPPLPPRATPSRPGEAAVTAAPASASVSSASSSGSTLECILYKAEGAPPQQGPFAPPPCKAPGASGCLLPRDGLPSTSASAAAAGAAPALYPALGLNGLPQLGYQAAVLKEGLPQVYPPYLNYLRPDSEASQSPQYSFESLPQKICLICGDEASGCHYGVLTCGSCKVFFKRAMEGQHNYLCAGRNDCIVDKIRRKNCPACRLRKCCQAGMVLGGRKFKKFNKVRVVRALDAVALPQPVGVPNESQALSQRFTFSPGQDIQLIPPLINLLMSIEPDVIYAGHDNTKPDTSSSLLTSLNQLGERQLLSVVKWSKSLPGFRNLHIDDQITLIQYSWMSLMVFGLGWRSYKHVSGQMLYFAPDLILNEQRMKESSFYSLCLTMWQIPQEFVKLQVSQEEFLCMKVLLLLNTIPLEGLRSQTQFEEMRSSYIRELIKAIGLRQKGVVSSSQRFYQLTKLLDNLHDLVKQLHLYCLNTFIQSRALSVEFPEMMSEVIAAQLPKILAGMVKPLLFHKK
Excerpt: Ganaxolone (3α-hydroxy-3β-methyl-5α-pregnan-20-one) is a 3β-methylated synthetic analogue of the endogenous neurosteroid allopregnanolone with similar biological activity (Carter et al., (1997), The Journal of Pharmacology and Experimental Therapeutics, 280:1284-1295), but it is designed to not activate nuclear (classical) progesterone receptors. Also, in contrast to allopregnanolone, ganaxolone is orally bioavailable.

subjects with SE = assay: Phase 2 Study 1042-SE-2001 open-label group, seizure control by EEG; assay type: in vivo, human
Excerpt: Example 2 is an ongoing, double-blind, randomized, placebo-controlled Phase 2 study designed to evaluate the safety, tolerability, and efficacy of adjunctive IV GNX in subjects with SE who have failed initial treatment with benzodiazepines and at least one AED. The study consists of a small open-label group to optimize the infusion parameters and provide a preliminary assessment of safety, efficacy, and tolerability of GNX administration, followed by a double-blind group who will be randomized to receive GNX or placebo in a 1:1 ratio. In both the open-label and double-blind groups, the study drug treatment is adjunctive therapy to standard of care, and subjects will receive a study drug bolus dose with a concurrent continuous infusion treatment with the goal of administering a therapeutic dose as quickly as possible to stop the seizures and prevent permanent neurological damage. Specifically, study drug will be added to the standard of care at the time that the first 2nd-line IV AED has failed and the second 2nd-line IV AED is medically indicated during the treatment of SE. Study drug must be administered with the second-line IV AED as close to the dose initiation of the second 2nd-line IV AED as possible, but before the initiation of the third-line IV anesthetic for burst suppression.
Ganaxolone for this study is a proprietary IV formulation solubilized by Captisol® (betadex sulfobutyl ether sodium). The maximum level of Captisol® will not exceed 50 g/per day. Ganaxolone for IV administration will be provided to the site as individual glass vials containing 3 mg/mL of ganaxolone for the open-label group and 5 mg/mL of ganaxolone for the double-blind group. Placebo for double-blind group IV administration will be provided to the site as blinded matching vials containing 0.9% sodium chloride solution.
Total adjunctive GNX therapy infusion treatment is planned to be 3 or 5 days (including an 18-hour taper). All subjects will have a 3-minute bolus dose with a continuous infusion at the rate from about 10 mg/hour to about 85 mg/hour or from about 18 mg/hr to 80 mg/hr, and an 18-hour taper. Once study drug administration is started it will be delivered for a full 2 or 4 days (48 or 96 hours) prior to tapering. At the end of second day administration, the decision to administer the study drug for an additional 2 days (i.e., for a total of 4 days) will be made. If in the investigator's medical judgment the subject will continue benefitting from study drug administration, ganaxolone will be administered to the additional 2 days.
As of 22 Mar. 2019, 5 subjects were enrolled into the Study 1042-SE-2001 open-label group under the original protocol that limits daily Captisol exposure at 35 g/day. […] The initial EEG pattern post-infusion initiation was described by study physicians as a “light” burst suppression that was maintained for several hours in all subjects. […] It was observed that when GNX exposure was lowered (20 mg/hr for 2 hours and ending with 10 mg/hr for the remaining 18 hours on Day 1) in order not to exceed this limit, seizure control could not be maintained and seizure activity (but not SE) re-occurred as evidenced by EEG changes. […] Seizure activity relapsed when plasma concentrations of GNX decreased <500 ng/mL in 4 out of 5 subjects.

Compound: CC(=O)[C@H]1CC[C@H]2[C@@H]3CC[C@H]4C[C@](C)(O)CC[C@]4(C)[C@H]3CC[C@]12C [Ganaxolone, 3α-hydroxy-3β-methyl-5α-pregnan-20-one]
- ganaxolone levels in plasma ([1]; all 30 healthy subjects, IV bolus or bolus plus infusion): quantifiable
- dose relation of plasma concentrations ([1]; healthy subjects, IV): generally proportional to the administered dose
- tolerability of GNX infusion ([2]; 17 RSE patients): generally well-tolerated
- participants with SAEs (severe sedation) assessed as related to GNX, leading to early discontinuation ([2]; concomitant CNS depressant medications): 2 participants
- activation of the progesterone receptor (progesterone receptor): does not activate the progesterone receptor directly or indirectly
- duration seizure protection was maintained (subjects with SE; 1 subject, amended protocol): 48 h
- time to RSE cessation after starting IV GNX infusion (subjects with SE; 1 subject, amended protocol, Captisol 50 g/day, NCSE due to tumor): ≤ 3 min
- seizure relapse on weaning off GNX (subjects with SE; 1 subject, amended protocol, listed as GNX): no seizure relapse; also recorded: without seizure relapse
- EEG response after start of GNX (subjects with SE; Subject 004-101, 30 mg bolus, 85 mg/hr): Almost immediately the EEG showed seizure suppression
- time of seizure relapse post infusion start (subjects with SE; Subject 004-101, at 20 mg/hr): approximately 5 hours
- time at which additional intervention was required post-dose initiation (subjects with SE; Subject 004-102): approximately 42.5 hours
- seizure activity on EEG (subjects with SE; Subject 004-102, 60 minutes and 2 hours post-dose initiation): no seizure activity
- time of return of concerning EEG pattern post-dose initiation (subjects with SE; Subject 004-102, at 20 mg/hr): 5 to 6 h
- time to SE abort after bolus administration (subjects with SE; Subject 006-101): ≤ 1 min
- seizure activity on EEG (subjects with SE; Subject 006-101, 60 minutes and 2 hours post-dose initiation): no seizure activity
- time of seizure relapse post infusion start (subjects with SE; Subject 006-101, at 20 mg/hr): approximately 6 hours
- effect of bolus on SE (subjects with SE; Subject 006-102): SE aborted upon administration of the bolus
- seizure activity on EEG (subjects with SE; Subject 006-102, 60 minutes, 2 hours and 4 hours post-dose initiation): no seizure activity
- time of seizure relapse post infusion start (subjects with SE; Subject 006-102, at 20 mg/hr): approximately 6 hours
- seizure return during treatment (subjects with SE; Subject 015-101, focal convulsive SE): Seizures did not return during the treatment period
- effect of initial bolus plus continuous infusion on seizures/SE (EEG) (subjects with SE; all 5 subjects, 30 mg bolus, 85 mg/hr 2 h then 40 mg/hr 2 h, listed as GNX): immediate cessation of seizures; also recorded: immediate cessation of SE
- subjects with seizure activity relapse when plasma GNX decreased <500 ng/mL (subjects with SE; original protocol, Captisol 35 g/day): 4 out of 5
